Tests used:
[1] = target: cytosolic isoenzyme of the GOT (Homo sapiens, UniProt P17174); experiment: Effect on activity of GOT isoenzymes in vitro (isoenzymes dissociated by isoelectric focusing), cytosolic isoenzyme; type: biochemical; details: FIG. 1b
Excerpt: (§1) In FIG. 1b is shown the effect of […] (AOA) and hydroxylamine (HA) on the activity of the cytosolic and mitochondrial isoenzyme of the GOT in vitro. The isoenzymes of the GOT were dissociated by an isoelectric focusing. […] The inhibition of the GOT leads to an inhibition of the malate-aspartate shuttle. As a consequence, NAD cannot be recycled, and the glycolysis is inhibited at the stage of the GAPDH.

[2] = target: T1, mitochondrial isoenzyme of the GOT (Homo sapiens, UniProt P00505); experiment: Effect on activity of GOT isoenzymes in vitro (isoenzymes dissociated by isoelectric focusing), mitochondrial isoenzyme; type: biochemical; details: FIG. 1b
T1 sequence (P00505 30-430): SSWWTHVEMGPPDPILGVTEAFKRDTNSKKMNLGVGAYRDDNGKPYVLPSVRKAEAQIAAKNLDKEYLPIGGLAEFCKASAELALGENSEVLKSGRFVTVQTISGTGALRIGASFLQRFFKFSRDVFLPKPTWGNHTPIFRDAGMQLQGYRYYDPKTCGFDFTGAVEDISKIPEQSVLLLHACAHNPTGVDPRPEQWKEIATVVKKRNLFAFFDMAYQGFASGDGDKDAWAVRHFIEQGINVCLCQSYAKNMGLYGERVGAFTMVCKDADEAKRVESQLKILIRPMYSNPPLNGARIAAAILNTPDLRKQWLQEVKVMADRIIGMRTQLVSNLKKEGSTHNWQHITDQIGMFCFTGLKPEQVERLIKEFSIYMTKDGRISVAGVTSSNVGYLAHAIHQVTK
Excerpt: as §1

Chain of cytosolic isoenzyme of the GOT (P17174 whole entry): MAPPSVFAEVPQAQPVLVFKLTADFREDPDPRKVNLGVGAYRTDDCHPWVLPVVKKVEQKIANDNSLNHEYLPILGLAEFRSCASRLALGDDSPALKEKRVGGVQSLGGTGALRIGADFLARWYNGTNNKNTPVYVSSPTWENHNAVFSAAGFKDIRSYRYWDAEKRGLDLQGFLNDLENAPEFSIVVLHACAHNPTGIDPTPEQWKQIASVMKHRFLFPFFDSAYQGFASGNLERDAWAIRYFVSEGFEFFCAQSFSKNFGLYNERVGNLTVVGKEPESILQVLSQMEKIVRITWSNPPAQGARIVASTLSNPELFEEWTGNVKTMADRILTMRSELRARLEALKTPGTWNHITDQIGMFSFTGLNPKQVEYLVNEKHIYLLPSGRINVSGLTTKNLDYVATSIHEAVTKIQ

Compound | effect on the activity of the cytosolic isoenzyme of the GOT [1] | effect on the activity of the mitochondrial isoenzyme of the GOT [2]
NO [hydroxylamine] | inhibits both isoenzymes | inhibits both isoenzymes
NOCC(=O)O [aminooxyacetate, (aminooxy)acetic acid] | mainly inhibits the cytosolic isoenzyme | 

— patent publication US7223784B2, “Compounds for the modulation of the glycolysis enzyme and/or transaminase complex” (ScheBo® Biotech AG, priority 2002, dated 2007)
